Results on 21 compounds are retold here after patent publication US9580430B2, “9H-pyrimido[4,5-B]indoles and related analogs as BET bromodomain inhibitors” (THE REGENTS OF THE UNIVERSITY OF MICHIGAN, priority 2014, dated 2017).

The subject of one assay is MOLM-13. The assay is described as follows: Cell growth inhibition, MOLM-13 leukemia cells (CellTiter-Glo). It is filed as cell-based. The settings on record: Homo sapiens, MOLM-13, 96 h; 4 days; read-out: IC50 (nM) MOLM-13 Cell Line (CellTiter-Glo assay). An outline of the steps: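 Luminescent ATP-based viability (CellTiter-Glo, 10-20 min at room temperature) in compound-treated MOLM-13 cells; the half-maximal inhibitory concentration was calculated from the readout.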
In general terms: ATP-based viability assays read luminescence as a measure of living cells.

A further assay relates to MDA-MB-436. As to the kind of experiment: Cell growth inhibition, MDA-MB-436 breast cancer cells (WST-8). It is filed as cell-based. The settings on record: Homo sapiens, MDA-MB-436, 96 h; 4 days; read-out: IC50 (nM) MDA-MB-436 Cell Line (WST assay). An outline of the steps: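 IC50 was computed from WST-8-based cell counting in MDA-MB-436 cells, with absorbance read at 450 nm.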
On the technique in general: Tetrazolium dyes change colour on reduction, which living cells bring about.

A further assay deals with T1, recombinant BRD4 BD2 (Homo sapiens, UniProt O60885).
T1 construct: for recombinant BRD4 BD1 and BRD4 BD2 proteins
As to the kind of experiment: Competitive fluorescence-polarization (FP) binding assay, BRD4 BD2. Further: probe 1.5 nM. As to conditions: competitive FP assay; protein 6 nM, probe […]; read-out: IC50 (nM) BRD4 BD2. In short, it runs like this:
(§1)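 Buffer: 100 mM potassium phosphate, pH 6.5, 0.01% Triton X-100; compounds added in buffer with 40% ethylene glycol to preformed complex of fluorescent probe with BRD4 BD1 (10 nM final) or BD2 (6 nM final). After 30 min at room temperature, polarization read. IC50 from nonlinear fits of competition curves, with Ki.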

The target in a further assay is T2, recombinant BRD4 BD1 (Homo sapiens, UniProt O60885).
T2 construct: for recombinant BRD4 BD1 and BRD4 BD2 proteins
The assay is described as follows: Competitive fluorescence-polarization (FP) binding assay, BRD4 BD1. Further: probe 1.5 nM. The settings on record: competitive FP assay; protein 10 nM, probe […]; read-out: IC50 (nM) BRD4 BD1. In short, it runs like this: as §1

By IC50 is commonly meant the point on the concentration scale where inhibition reaches its midpoint. For `COc1cc2c(cc1-c1c(C)noc1C)[nH]c1nc(C)nc(NC3CCCC3)c12` [Cpd. No. 113, N-cyclopentyl-7-(3,5-dimethylisoxazol-4-yl)-6-methoxy-2-methyl-9H-pyrimido[4,5-b]indol-4-amine], the IC50 in the assay with MOLM-13 came to 853 nM; with MDA-MB-436, 1100 nM; at recombinant BRD4 BD2, 564 nM; on recombinant BRD4 BD1, 582 nM.
For `COc1cc2c(cc1-c1c(C)noc1C)[nH]c1nc(C)nc(Nc3c(-c4ccccc4)noc3C)c12` [Cpd. No. 98, N-(7-(3,5-dimethylisoxazol-4-yl)-6-methoxy-2-methyl-9H-pyrimido[4,5-b]indol-4-yl)-5-methyl-3-phenylisoxazol-4-amine], in that order: 171 nM, 380 nM, 13 nM and 76 nM.
Turning to `COc1cc2c(cc1-c1c(C)noc1C)[nH]c1nc(C)nc(Nc3nn(CCO)c4ccccc34)c12` [Cpd. No. 131, 2-(3-((7-(3,5-Dimethylisoxazol-4-yl)-6-methoxy-2-methyl-9H-pyrimido[4,5-b]indol-4-yl)amino)-1H-indazol-1-yl)ethanol], the IC50 in the assay with MOLM-13 was determined as 32.7 nM; in the assay with MDA-MB-436, 97.6 nM; on recombinant BRD4 BD2, 51.4 nM; at recombinant BRD4 BD1 it was 9.6 nM.
For `COc1cc2c(cc1-c1c(C)noc1C)[nH]c1nc(C)nc(Nc3cccc(C(F)(F)F)c3)c12` [Cpd. No. 214, 7-(3,5-dimethylisoxazol-4-yl)-6-methoxy-2-methyl-N-(3-(trifluoromethyl)phenyl)-9H-pyrimido[4,5-b]indol-4-amine] the same measures were 208 nM, 249 nM, 348 nM and 855 nM.
In the case of `COc1cc2c(cc1-c1c(C)noc1C)[nH]c1nc(C)nc(Nc3c(C)c(C)nn3C3CC3)c12` [Cpd. No. 188, N-(1-cyclopropyl-3,4-dimethyl-1H-pyrazol-5-yl)-7-(3,5-dimethylisoxazol-4-yl)-6-methoxy-2-methyl-9H-pyrimido[4,5-b]indol-4-amine], the IC50 turned out to be 3.2 nM with MOLM-13, 12.8 nM with MDA-MB-436, 3.7 nM on recombinant BRD4 BD2 and 2.1 nM at recombinant BRD4 BD1.
For `COc1cc2c(cc1-c1c(C)noc1C)[nH]c1nc(C)nc(Nc3cccc4c3CCN4)c12` [Cpd. No. 231, 7-(3,5-dimethylisoxazol-4-yl)-N-(indolin-4-yl)-6-methoxy-2-methyl-9H-pyrimido[4,5-b]indol-4-amine] the same measures were 28 nM, 79 nM, 44 nM and 35 nM.
For `COc1cc2c(cc1-c1c(C)noc1C)[nH]c1nc(C)nc(Nc3ccnn3C3CCCC3)c12` [Cpd. No. 178, N-(1-cyclopentyl-1H-pyrazol-5-yl)-7-(3,5-dimethylisoxazol-4-yl)-6-methoxy-2-methyl-9H-pyrimido[4,5-b]indol-4-amine], in that order: 22.5 nM, 52.9 nM, 0.6 nM and 9 nM.
On to `COc1cc2c(cc1-c1c(C)noc1C)[nH]c1nc(C)nc(Nc3c(C)nn4ccccc34)c12` [Cpd. No. 15, 7-(3,5-Dimethylisoxazol-4-yl)-6-methoxy-2-methyl-N-(2-methylpyrazolo[1,5-a]pyridin-3-yl)-9H-pyrimido[4,5-b]indol-4-amine], for which the IC50 amounted to 5.1 nM in the assay with MOLM-13, 33.7 nM in the assay with MDA-MB-436, 18.8 nM on recombinant BRD4 BD2 and 10.1 nM at recombinant BRD4 BD1.
For `COc1cc2c(cc1-c1c(C)noc1C)[nH]c1nc(C)nc(Nc3cccc4ccncc34)c12` [Cpd. No. 223, 7-(3,5-dimethylisoxazol-4-yl)-N-(isoquinolin-8-yl)-6-methoxy-2-methyl-9H-pyrimido[4,5-b]indol-4-amine] the same measures were 115 nM, 152 nM, 55 nM and 47 nM.
For `COc1cc2c(cc1-c1c(C)noc1C)[nH]c1nc(C)nc(Nc3cccc(C)n3)c12` [Cpd. No. 111, 7-(3,5-dimethylisoxazol-4-yl)-6-methoxy-2-methyl-N-(6-methylpyridin-2-yl)-9H-pyrimido[4,5-b]indol-4-amine] the same measures were 7 nM, 1100 nM, 218 nM and 312 nM.
For `COc1cc2c(cc1-c1c(C)noc1C)[nH]c1ccnc(Nc3cc(C4CC4)nn3C)c12` [Cpd. No. 255, N-(3-cyclopropyl-1-methyl-1H-pyrazol-5-yl)-7-(3,5-dimethylisoxazol-4-yl)-8-methoxy-5H-pyrido[4,3-b]indol-1-amine], in that order: 12 nM, 26 nM, 8.5 nM and 10.5 nM.
For `COc1cc2c(cc1-c1c(C)noc1C)[nH]c1nc(C)nc(Nc3cc(C4CC4)nn3C(C)C)c12` [Cpd. No. 149, N-(3-Cyclopropyl-1-isopropyl-1H-pyrazol-5-yl)-7-(3,5-dimethylisoxazol-4-yl)-6-methoxy-2-methyl-9H-pyrimido[4,5-b]indol-4-amine], the IC50 was 7.2 nM in the assay with MOLM-13, 14.2 nM in the assay on MDA-MB-436, 5.4 nM at recombinant BRD4 BD2 and 6.8 nM at recombinant BRD4 BD1.
For `COc1cc2c(cc1-c1c(C)noc1C)[nH]c1nc(C)nc(Nc3c(C(C)C)nn(C)c3C(C)C)c12` [Cpd. No. 242, N-(3,5-diisopropyl-1-methyl-1H-pyrazol-4-yl)-7-(3,5-dimethylisoxazol-4-yl)-6-methoxy-2-methyl-9H-pyrimido[4,5-b]indol-4-amine], in that order: 24 nM, 47 nM, 12 nM and 9 nM.
For `COc1cc2c(cc1-c1c(C)noc1C)[nH]c1nc(C)nc(Nc3cnccc3C)c12` [Cpd. No. 109, 7-(3,5-dimethylisoxazol-4-yl)-6-methoxy-2-methyl-N-(4-methylpyridin-3-yl)-9H-pyrimido[4,5-b]indol-4-amine] the same measures were 12 nM, 679 nM, 253 nM and 284 nM.
As for `COc1cc2c(cc1-c1c(C)noc1C)[nH]c1nc(C)nc(Nc3ccccc3C(C)C)c12` [Cpd. No. 243, 7-(3,5-dimethylisoxazol-4-yl)-N-(2-isopropylphenyl)-6-methoxy-2-methyl-9H-pyrimido[4,5-b]indol-4-amine], the IC50 with MOLM-13 came out at 61 nM; in the assay on MDA-MB-436, 162 nM; at recombinant BRD4 BD2, 14 nM; on recombinant BRD4 BD1 it was 15 nM.
Consider `COc1cc2c(cc1-c1c(C)noc1C)[nH]c1ncnc(Nc3nn(C)c4ccccc34)c12` [Cpd. No. 17, 7-(3,5-Dimethylisoxazol-4-yl)-6-methoxy-N-(1-methyl-1H-indazol-3-yl)-9H-pyrimido[4,5-b]indol-4-amine], for which the IC50 with MOLM-13 was determined as 28.4 nM; in the assay on MDA-MB-436, 51 nM; at recombinant BRD4 BD2, 82.3 nM; on recombinant BRD4 BD1, 16.7 nM.
For `COc1cc2c(cc1-c1c(C)noc1C)[nH]c1nc(C)nc(Nc3c4c(nn3C3CC3)CCC4)c12` [Cpd. No. 148, N-(2-Cyclopropyl-2,4,5,6-tetrahydrocyclopenta[c]pyrazol-3-yl)-7-(3,5-dimethylisoxazol-4-yl)-6-methoxy-2-methyl-9H-pyrimido[4,5-b]indol-4-amine], in that order: 3.4 nM, 20.4 nM, 5 nM and 7.9 nM.
Take `COc1cc2c(cc1-c1c(C)noc1C)[nH]c1nc(C)nc(Nc3cccc(Cl)c3)c12` [Cpd. No. 97, N-(3-chlorophenyl)-7-(3,5-dimethylisoxazol-4-yl)-6-methoxy-2-methyl-9H-pyrimido[4,5-b]indol-4-amine]: the IC50 with MOLM-13 is 43 nM; in the assay on MDA-MB-436, 180 nM; at recombinant BRD4 BD2, 8 nM; at recombinant BRD4 BD1, 34 nM.
Consider `COc1cc2c(cc1-c1c(C)noc1C)[nH]c1nc(C)nc(Nc3c4c(nn3C)CCCC4)c12` [Cpd. No. 125, 7-(3,5-Dimethylisoxazol-4-yl)-6-methoxy-2-methyl-N-(2-methyl-4,5,6,7-tetrahydro-2H-indazol-3-yl)-9H-pyrimido[4,5-b]indol-4-amine], for which the IC50 was 11.3 nM in the assay on MOLM-13, 17.5 nM with MDA-MB-436, 2 nM at recombinant BRD4 BD2 and 4.4 nM on recombinant BRD4 BD1.
For `COc1cc2c(cc1-c1c(C)noc1C)[nH]c1nc(C)nc(Nc3cn(C)c4ncccc34)c12` [Cpd. No. 227, 7-(3,5-dimethylisoxazol-4-yl)-6-methoxy-2-methyl-N-(1-methyl-1H-pyrrolo[2,3-b]pyridin-3-yl)-9H-pyrimido[4,5-b]indol-4-amine], in that order: 31 nM, 62 nM, 22 nM and 14 nM.
In the case of `CCn1nc(C)c(C)c1Nc1nc(C)nc2[nH]c3cc(-c4c(C)noc4C)c(OC)cc3c12` [Cpd. No. 186, 7-(3,5-dimethylisoxazol-4-yl)-N-(1-ethyl-3,4-dimethyl-1H-pyrazol-5-yl)-6-methoxy-2-methyl-9H-pyrimido[4,5-b]indol-4-amine], the half-maximal inhibitory concentration (IC50) came out at 27.1 nM in the assay with MOLM-13, 132 nM in the assay on MDA-MB-436, 55.1 nM at recombinant BRD4 BD2 and 33.9 nM at recombinant BRD4 BD1.
